Results taken from US10889607B2, “Sialic acid analogs” (Ultragenyx Pharmaceutical Inc., priority 2011, dated 2021).
Like-named read-outs stand apart in the source and are kept apart here.

How the values were obtained:
[1] = Sialic acid/prodrug single dose PO crossover pharmacokinetics study; assay type: in vivo, cynomolgus monkeys; details: for peak serum concentration (Cmax): serum sialic acid, mean n=3, single 100 mg/kg PO, fasted cynomolgus monkeys; for extent of the absorption: sialic acid API vs prodrug, single 100 mg/kg PO, cynomolgus monkeys
From the text: Example 4. Sialic Acid/Prodrug Single Dose PO Crossover Pharmacokinetics Study in Cynomolgus Monkeys
A single oral dose crossover pharmacokinetic study of sialic acid (API) and prodrug (Compound 1—a valine ester of sialic acid as described above) was run in fasted cynomolgus monkeys (n=3). For this study, it was essential that the GI tract of the in vivo model have some similarities to human metabolism in order for the Pep Ti transporter system to be present, thus monkeys were chosen since they carry the same transporter in the gut as humans.
The 100 mg/kg dose level chosen was based on what is known for dosing of sialic acid which has passed complete toxicological evaluation and is safe up to 2,000 mg/kg NOAEL in dogs and rats. On Day 1, three female cynomolgus monkeys were dosed with 100 mg/kg sialic acid (API) and on Day 8 the same three cynomolgus monkeys were dosed with 100 mg/kg of the prodrug. Serum was collected at the following timepoints: predose, then 5 min, 15 min, 30 min, 1 hr, 2 hrs, 4 hrs, 8 hrs, 12 hrs and 24 hrs postdose. Urine samples were collected predose overnight, then at intervals 0-4 hrs, 4-8 hrs, 8-12 hrs and 12-24 hrs post dose. The data in FIG. 2A show the mean absorption values (n=3) of serum sialic acid on Days 1 and 8. The prodrug peak serum concentration is earlier (1 hr) than sialic acid API (2 hrs). […] The pharmacokinetic data in FIGS. 2B and 2C show group averages of sialic acid concentrations on Days 1 and 8.

[2] = dog, in vivo; cited from earlier work
[3] = rat, in vivo; cited from earlier work

| Compound | peak serum concentration (Cmax) [1] | extent of the absorption [1] | NOAEL [2] | NOAEL [3] |
| --- | --- | --- | --- | --- |
| CC(=O)NC1C(O)CC(O)(C(=O)O)OC1C(O)C(O)COC(=O)C(N)C(C)C (stereo not drawn) [Compound 1, 5-Acetylamino-6-[3-(2-amino-3-methyl-butyryloxy)-1,2-dihydroxy-propyl]-2,4-dihydroxy-tetrahydro-pyran-2-carboxylic acid] | 857 ng/mL | similar | – | – |
| CC(=O)N[C@H]1[C@H]([C@H](O)[C@H](O)CO)OC(O)(C(=O)O)C[C@@H]1O (stereo partly drawn) [sialic acid, N-acetylneuraminic acid] | 1623 ng/mL | similar | 2,000 mg/kg | 2,000 mg/kg |
